Test results published in publication PMC6934184, “Selective DNA-PKcs inhibition extends the therapeutic index of localized radiotherapy and chemotherapy” (The Journal of Clinical Investigation, 2019).

Target: T1, MAP3K2 (MEKK2) (Homo sapiens, UniProt Q9Y2U5)
T1 construct: purchased Thermo Fisher Scientific (Life Technologies) SelectScreen
Assay: SelectScreen LanthaScreen
Type: binding
Details: read-out: % displacement
Method in brief: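 NU5455 was profiled across the SelectScreen Broad panel of kinase activity and binding assays. Z'LYTE reactions such as CSF1R ran at apparent Km ATP, while the Adapta CAMK1 assay used ATP listed as 10. Values are given as percent.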

T1 sequence (Q9Y2U5 whole entry): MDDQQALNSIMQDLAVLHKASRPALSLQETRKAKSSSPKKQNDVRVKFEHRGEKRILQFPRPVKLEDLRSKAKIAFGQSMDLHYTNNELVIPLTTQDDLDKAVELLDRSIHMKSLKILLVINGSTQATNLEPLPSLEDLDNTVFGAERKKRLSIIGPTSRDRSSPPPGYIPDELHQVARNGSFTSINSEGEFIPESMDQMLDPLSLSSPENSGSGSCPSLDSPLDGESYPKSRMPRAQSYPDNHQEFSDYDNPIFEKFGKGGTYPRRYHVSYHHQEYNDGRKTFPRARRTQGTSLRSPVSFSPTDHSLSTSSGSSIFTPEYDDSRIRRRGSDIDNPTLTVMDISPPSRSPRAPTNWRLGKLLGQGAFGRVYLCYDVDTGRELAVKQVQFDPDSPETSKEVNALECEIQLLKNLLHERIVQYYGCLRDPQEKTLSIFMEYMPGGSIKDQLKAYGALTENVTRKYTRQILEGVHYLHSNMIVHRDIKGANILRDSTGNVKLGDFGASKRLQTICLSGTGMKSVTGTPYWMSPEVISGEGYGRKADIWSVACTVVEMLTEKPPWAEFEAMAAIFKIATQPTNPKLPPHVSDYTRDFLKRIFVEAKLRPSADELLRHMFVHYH

**Q.** Which inhibition at 1 µM does the source give for `CN(C(=O)CN1CCOCC1)c1ccc2sc3c(-c4cccc5c(=O)cc(N6CC7CCC(C6)O7)oc45)cccc3c2c1` [NU5455] here?
**A.** 0.1%
